Reference: US20230143775A1, “METHODS OF TREATING CORONAVIRUS INFECTIONS” (EAGLE PHARMACEUTICALS, INC., priority 2020, published 2023)
Values after ≈ are worked out from the molar mass of the structure shown.

Legend:
uninfected Vero E6 cells = conditions: lower dilutions (<50 μM dantrolene), without virus
SARS-CoV-2 = assay: Virus neutralization (VN) assay, scoring SARS-CoV-2 cytopathic effects (CPE) in Vero E6 cells; type: cell-based; conditions: for Day 2 Read (CPE) / Day 4 Read (CPE) / Day 6 Read (CPE): triplicate wells
[1] = 20 μM dantrolene (as […]), […], Vero E6 cells
[2] = 30 μM dantrolene (as […]), […], Vero E6 cells
[3] = 40 μM dantrolene (as […]), […], Vero E6 cells

O=C1CN(/N=C/c2ccc(-c3ccc([N+](=O)[O-])cc3)o2)C(O)=N1 [dantrolene]
cell viability of uninfected Vero E6 cells (uninfected Vero E6 cells): good cell viability | Day 2 Read (CPE) (SARS-CoV-2; [1]): 3/3 wells had No CPE | Day 4 Read (CPE) (SARS-CoV-2; [1]): 3/3 wells had No CPE | Day 6 Read (CPE) (SARS-CoV-2; [1]): 3/3 wells had No CPE | Day 2 Read (CPE) (SARS-CoV-2; [2]): 3/3 wells had No CPE | Day 4 Read (CPE) (SARS-CoV-2; [2]): 3/3 wells had No CPE | Day 6 Read (CPE) (SARS-CoV-2; [2]): 3/3 wells had No CPE | Day 2 Read (CPE) (SARS-CoV-2; [3]): 3/3 wells had No CPE | Day 4 Read (CPE) (SARS-CoV-2; [3]): 3/3 wells had No CPE | Day 6 Read (CPE) (SARS-CoV-2; [3]): 3/3 wells had No CPE | Day 6 Read (CPE) (SARS-CoV-2; 100 μM dantrolene (as […]), […], Vero E6 cells): 3/3 wells had >90% | CPE (SARS-CoV-2; 20-40 μM of dantrolene, […]): no CPE was observed | cytopathic effects (indicating virus growth) (SARS-CoV-2; 20 and 40 μM dantrolene, all timepoints): No cytopathic effects | MIC (SARS-CoV-2; Severe acute respiratory syndrome coronavirus 2, no CPE across all time points (Days 2, 4, 6), Vero E6 cells, read-out: minimum inhibitory concentration): 20 µM (≈ 6.29 µg/mL) | anti-viral activity (SARS-CoV-2; lower concentrations of 10 and 5 μM): showed anti-viral activity
